Read-outs that look alike come from different tables or passages of the source.
Experiments:
hERG channel = settings: cited from earlier work
[1] = test system: alpha-1-acid-glycoprotein (AGP); assay: Protein binding on Chiralpak AGP HPLC column; settings: pH 7.4, Chiralpak AGP
Protocol: (§1) The measurement of the biomimetic properties of the available drugs was conducted in our laboratories. Generic gradient HPLC methods were used to determine the chromatographic hydrophobicity Index (CHI) using mobile phases at three different pH values. The protein binding of the compounds was measured using immobilised human serum albumin (HSA), and alpha-1-acid-glycoprotein (AGP) stationary phases. The phospholipid-binding was measured using the immobilised artificial membrane (IAM) stationary phase. The aim was to establish relationships between the cardiotoxicity potential and the biomimetic binding properties of the drugs and to evaluate their predictive performance.

[2] = biological target: human serum albumin (HSA) (Homo sapiens, UniProt P02768); assay: Protein binding on Chiralpak HSA HPLC column
Protocol: as §1

[3] = Phospholipid binding at pH 7.4 on IAM PC.DD2 HPLC column; type: physicochemical; parameters: key to CHI IAM: approximates acetonitrile concentration (%) in mobile phase at elution; settings: for CHI IAM: pH 7.4; for log k IAM: pH 7.4, derived from CHI IAM by equation 1
Protocol: The phospholipid-binding was measured using an IAM PC.DD2 column with dimensions of 100 x 4.6 mm (Regis Technologies Inc., Morton Grove, IL, USA). The gradient retention times were measured using a 50 mM ammonium acetate mobile phase with the pH adjusted to 7.4. The mobile phase flow rate was 1.5 mL/min. […] The cycle time was 6 min, plus an additional 1 min equilibration time was applied while the injector prepared for the next injection. The gradient retention times were calibrated with the acetophenone homologues for which the CHI IAM values have been established using isocratic measurements. […] The CHI Index on the IAM column (CHI IAM) approximates the acetonitrile concentration in the mobile phase when the compound elutes. […] The CHI IAM values have been converted to log k IAM values derived from the CHI IAM values using equation 1. It represents the equivalent value derived from several isocratic measurements with extrapolated log retention factors to 100 % aqueous mobile phase. The log k IAM values can be converted to log K (IAM) values and show linear relationships with the octanol/water partition coefficients.

[4] = Charge character of the drugs at pH 7.4; type: physicochemical
[5] = CHI lipophilicity by gradient reversed-phase HPLC (Gemini NX-C-18); settings: for chromatographic logD: Gemini NX-C-18 reversed-phase HPLC column, pH 7.4; for chromatographic logP: reversed-phase HPLC, Gemini NX-C-18 column (50 x 3 mm, 5 µm)
Protocol: The Chromatographic Hydrophobicity Index (CHI) was measured using the compounds’ calibrated gradient retention times obtained from an Agilent 1100 HPLC fitted with a Gemini NX-C-18 column (Phenomenex Ltd Macclesfield, UK) with dimensions of 50 x 3 mm and 5 μm particle size. […] The mobile phase B was 100 % acetonitrile. […] An acetonitrile linear gradient was used from 0 to 100 %. […] The retention time values for a standard set of compounds listed in Table 1 were used to convert the drug retention times to CHI values.

[6] = literature values, mean where several reported, molar

human serum albumin (HSA), sequence (P02768 25-609): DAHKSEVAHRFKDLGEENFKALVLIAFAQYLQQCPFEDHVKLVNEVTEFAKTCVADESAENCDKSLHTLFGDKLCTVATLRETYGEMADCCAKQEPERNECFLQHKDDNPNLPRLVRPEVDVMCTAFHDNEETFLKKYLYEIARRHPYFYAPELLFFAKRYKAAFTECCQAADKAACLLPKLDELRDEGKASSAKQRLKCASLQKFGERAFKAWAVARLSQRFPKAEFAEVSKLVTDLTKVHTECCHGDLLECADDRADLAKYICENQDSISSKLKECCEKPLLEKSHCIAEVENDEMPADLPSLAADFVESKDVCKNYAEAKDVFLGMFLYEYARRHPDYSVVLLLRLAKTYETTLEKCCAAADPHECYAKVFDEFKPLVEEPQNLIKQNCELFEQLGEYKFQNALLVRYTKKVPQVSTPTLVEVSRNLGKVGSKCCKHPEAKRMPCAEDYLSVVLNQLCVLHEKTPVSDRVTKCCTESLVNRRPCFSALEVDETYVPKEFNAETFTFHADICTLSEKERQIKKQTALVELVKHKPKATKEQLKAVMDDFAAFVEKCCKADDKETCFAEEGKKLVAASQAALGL

Row | log k AGP [1] | log k HSA ([2]; pH 7.4, Chiralpak HSA) | CHI IAM [3] | log k IAM [3] | Charge [4] | chromatographic logD [5] | chromatographic logP [5] | log k HSA ([2]; human, pH 7.4) | Structure (SMILES) | hERG pIC50 (hERG channel) | hERG pIC50 (hERG channel; [6])
1 | 1.69 | 0.98 | – | – | Weak Base | 2.26 | 2.68 | – | O=C(CCCN1CC=C(n2c(=O)[nH]c3ccccc32)CC1)c1ccc(F)cc1 [Droperidol] | – | –
2 | 0.52 | 0.34 | – | 2.53 | Basic | 0.79 | 2.5 | – | CN1C2CCCC1CC(NC(=O)c1nn(C)c3ccccc13)C2 (stereo not drawn) [Granisetron] | – | –
3 | 0.99 | – | – | 3.03 | Basic | 2.03 | 4.79 | – | CNCCCC12CCC(c3ccccc31)c1ccccc12 [Maprotiline] | – | 5.17
4 | – | – | – | – | Zwitterionic | – | – | 0.54 | COc1c(N2C[C@@H]3CCCN[C@@H]3C2)c(F)cc2c(=O)c(C(=O)O)cn(C3CC3)c12 [Moxifloxacin] | – | 3.83
5 | 0.69 | – | – | – | Neutral | 3.15 | 3.19 | – | CCOC(=O)C1=C(C)NC(C)=C(C(=O)OC)C1c1cccc([N+](=O)[O-])c1 (stereo not drawn) [Nitrendipine] | – | 5.10
6 | 1.13 | – | – | 2.61 | Weak Base | 2.92 | 3.5 | – | OCCN1CCN(CCCN2c3ccccc3Sc3ccc(Cl)cc32)CC1 [Perphenazine] | – | 5.88
7 | 1.03 | – | – | 2.79 | Weak Base | 1.72 | 4.7 | – | CNCCCC1c2ccccc2C=Cc2ccccc21 [Protriptyline] | – | 5.30
8 | 1.59 | – | 42.17 | 2.36 | Weak Base | 3.31 | 3.39 | – | CC(C)(C)NC(=O)[C@@H]1C[C@@H]2CCCC[C@@H]2CN1C[C@@H](O)[C@H](Cc1ccccc1)NC(=O)[C@H](CC(N)=O)NC(=O)c1ccc2ccccc2n1 [Saquinavir] | – | 5.82
9 | -1.41 | – | – | 1.43 | Basic | -0.39 | -0.35 | – | CC(C)NCC(O)c1ccc(NS(C)(=O)=O)cc1 (stereo not drawn) [Sotalol] | – | 3.57
10 | 0.50 | 0.78 | 36.93 | 2.12 | Neutral | 2.76 | 2.97 | – | CC(=O)S[C@@H]1CC2=CC(=O)CC[C@]2(C)[C@H]2CC[C@@]3(C)[C@@H](CC[C@@]34CCC(=O)O4)[C@H]12 [Spironolactone] | – | –
11 | 0.46 | – | – | 1.93 | Weak Base | 2.51 | 2.59 | – | O=c1n(CCCN2CCN(c3cccc(Cl)c3)CC2)nc2ccccn12 [Trazodone] | – | 5.30
12 | 1.19 | – | – | 3.55 | Basic | 3.8 | 5.14 | – | CN1CCN(CCCN2c3ccccc3Sc3ccc(C(F)(F)F)cc32)CC1 [Trifluoperazine] | – | 5.72

The remaining lines, values behind:

Row | Structure (SMILES) | log k AGP [1] | log k HSA ([2]; pH 7.4, Chiralpak HSA) | CHI IAM [3] | log k IAM [3] | Charge [4] | chromatographic logD [5] | chromatographic logP [5] | log k HSA ([2]; human, pH 7.4) | hERG pIC50 (hERG channel) | hERG pIC50 (hERG channel; [6])
13 | COc1cc2nc(N(C)CCCNC(=O)C3CCCO3)nc(N)c2cc1OC (stereo not drawn) [Alfuzosin] | 0.32 | 0.08 | – | – | – | – | – | – | 4.28 | –
14 | CN(C)CCCN1c2ccccc2Sc2ccc(Cl)cc21 [Chlorpromazine] | 1.79 | – | 48.16 | 2.64 | Basic | -0.58 | 0.97 | – | – | 5.65
15 | CN1CCN(C2=Nc3cc(Cl)ccc3Nc3ccccc32)CC1 [Clozapine] | 0.99 | 1.04 | 52.42 | 2.83 | Weak Base | 2.6 | 3.05 | – | – | –
16 | O=c1[nH]c2ccccc2n1CCCN1CCC(n2c(=O)[nH]c3cc(Cl)ccc32)CC1 [Domperidone] | – | 1.02 | 43.47 | 2.42 | Weak Base | 1.37 | 2.13 | – | – | –
17 | C[C@H]1COc2c(N3CCN(C)CC3)c(F)cc3c(=O)c(C(=O)O)cn1c23 [Levofloxacin] | -0.74 | – | 28.55 | 1.73 | Zwitterionic | 0.54 | – | – | 2.93 | –
18 | COCC(=O)O[C@]1(CCN(C)CCCc2nc3ccccc3[nH]2)CCc2cc(F)ccc2[C@@H]1C(C)C [Mibefradil] | 1.11 | – | – | 2.96 | Basic | 2.96 | 3.99 | – | 5.88 | –
19 | Clc1ccc(COC(Cn2ccnc2)c2ccc(Cl)cc2Cl)c(Cl)c1 (stereo not drawn) [Miconazole] | 1.26 | – | 53.72 | 2.89 | Weak Base | 4.64 | 4.7 | – | 5.68 | –
20 | CC1COc2c(N3CCN(C)CC3)c(F)cc3c(=O)c(C(=O)O)cn1c23 (stereo not drawn) [Ofloxacin] | -0.81 | – | – | 1.62 | Zwitterionic | 0.53 | – | – | 2.93 | –
21 | C=C[C@H]1C[N@@]2CC[C@H]1C[C@@H]2[C@@H](O)c1ccnc2ccc(OC)cc12 [Quinidine] | 0.68 | – | – | 2.71 | Basic | – | – | – | 5.51 | –

Reference: PMC8920097, “Prediction of hERG inhibition of drug discovery compounds using biomimetic HPLC measurements” (ADMET & DMPK, 2021)
